From paper PMC5423902, “CXCL9-Derived Peptides Differentially Inhibit Neutrophil Migration In Vivo through Interference with Glycosaminoglycan Interactions” (Frontiers in Immunology, 2017)
Blank lines part the entries; values can stand above or below the compound they belong to. Peptide text beside a SMILES is read from it. * marks the point of attachment. 5TAMRA = CN(C)c1ccc2c(c1)Oc1cc(N(C)C)ccc1C21OC(=O)c2cc(C(=O)*)ccc21

Experiments:
[1] = test system: CXCL8-induced neutrophil migration; details: cited from earlier work
[2] = test system: CXCL8(1-77) binding to heparan sulfate (HS); assay: Competition with CXCL8 for binding to immobilized HS (ELISA-like); parameters: species or system human; details: CXCL8(1-77) 0-300 nM, n ≥ 4, Figure 3B
Experimental: (§1) The ability of the COOH-terminal peptides of CXCL9 and CXCL4 to compete for GAG binding with the inflammatory chemokines CXCL8 and CXCL1 was evaluated on heparin-binding plates [BD Biosciences or produced by Jason Whittle (School of Engineering/Future Industries Institute, University of South Australia, Australia)] ([42], [47]). In brief, GAGs (heparin, HS, and CS; Iduron; 25 µg/ml) were coated overnight at room temperature. Dilutions of COOH-terminal CXCL9 or CXCL4 peptide combined with recombinant human CXCL8(1-77) or recombinant murine CXCL1(1-72) (Peprotech, Rocky Hill, NJ, USA) were added in duplicate and incubated for 2 h at 37°C. Subsequently, bound CXCL8 or CXCL1 was detected with biotinylated polyclonal rabbit anti-human CXCL8 or biotinylated polyclonal goat anti-mouse CXCL1 (Peprotech) and horse radish peroxidase-labeled streptavidin. Finally, the peroxidase activity was quantified at 450 nm.
(§2) Figure 3 CXCL9(74-93) competes with CXCL8 for binding to heparin, heparan sulfate (HS), and cellular glycosaminoglycans (GAGs). Competition between CXCL8 and COOH-terminal CXCL9 or CXCL4 peptides for binding to immobilized heparin (A) or HS (B) and to Chinese hamster ovary (CHO) cells (C) was performed. […] Bound CXCL8 was detected with biotinylated anti-human CXCL8 antibodies. (C) Binding of NH2-terminally biotinylated CXCL8(1-77) (300 nM) to CHO cells in the presence or absence of an excess CXCL9 peptide was detected by streptavidin-allophycocyanin and flow cytometry. The mean (± SEM) percentage inhibition of binding of CXCL8(1-77) to heparin, HS or cellular GAGs is indicated on the y-axis (n ≥ 4). Statistical comparison of the different competitors with CXCL9(74–103) was performed using the Mann–Whitney U-test (*p < 0.05).

[3] = test system: CXCL1(1-72) binding to heparan sulfate (HS); assay: Competition with CXCL1 for binding to immobilized HS; parameters: species or system murine; details: n ≥ 3; Figure 6A
Experimental: as §1
Competition between CXCL1 and COOH-terminal CXCL9 peptides for binding to immobilized heparan sulfate (HS) (A) and chondroitin sulfate (CS) (B) was performed. […] Bound CXCL1 was detected with biotinylated polyclonal goat anti-mouse CXCL1 antibodies. The mean (± SEM) percentage inhibition of CXCL1 binding to GAGs is indicated on the y-axis (n ≥ 3). Statistical comparison of the different competitors with CXCL9(74–103) was performed using the Mann–Whitney U-test.

[4] = test system: CXCL8-induced neutrophil migration; assay: CXCL8-induced neutrophil migration to the peritoneal cavity; assay type: in vivo, mouse (NMRI); details: 108 µg peptide i.p.; data not shown
Experimental: In vivo neutrophil extravasation to the peritoneal or the knee cavity was examined, respectively, by intraperitoneal or intra-articular injection, of endotoxin-free recombinant CXCL8(1-77) (PeproTech) or vehicle (PBS) in female NMRI or C57BL/6 mice, as described previously ([42], [48]). Simultaneously, synthetic CXCL9 peptide was co-injected either intraperitoneally or injected intravenously. After 2 h (peritoneal cavity) or 3 h (knee cavity), mice were sacrificed. The peritoneal cavity was washed with saline enriched with 2% FCS and 20 U/ml heparin and total leukocyte counts were determined. For the preparation of cytospins, 10^5 cells were used and absolute number and percentage of neutrophils in the lavages were determined in duplicate independently by two researchers by differential microscopic counting. The cells present in the tibiofemoral articulation were harvested by washing the cavity with 10 µl of 3% (w/v) bovine serum albumin in PBS and diluted in 90 µl of 3% (w/v) bovine serum albumin in PBS. The number of total leukocytes was determined by counting leukocytes in a Neubauer chamber after staining with Turk’s solution. Differential counts were obtained from cytospin preparations by evaluating the percentage of each leukocyte type on a slide stained with May-Grunwald-Giemsa solution.
Figure 4 The COOH-terminal peptides of CXCL9 inhibit CXCL8-induced neutrophil migration to the peritoneal cavity. CXCL8(1-77) was injected into the peritoneal cavity of NMRI mice (n ≥ 5) simultaneously with an intraperitoneal (A) or intravenous (B,C) injection of CXCL9(74-103) or CXCL9(74–93). The number of neutrophils in the peritoneal cavity, 2 h post injection, were evaluated by differentially counting the leukocyte subtypes on Hemacolor-stained cytospins. The neutrophil counts are shown for every individual mouse, and the horizontal lines denote the median percentage. To detect statistically significant differences, the Mann–Whitney U-test was carried out (*p < 0.05; **p < 0.01; ***p < 0.005).

[5] = Plasma level of intravenously injected fluorescent CXCL9(74-103); assay type: in vivo, mouse; details: spectrofluorometric
Source text: Intravenously injected fluorescent CXCL9(74-103) was detected in plasma after different time intervals by spectrofluorometric analysis and quantified against murine plasma spiked with known concentrations of the fluorescent peptide.

[6] = test system: HS expression on CHO cells; assay: HS expression on CHO cells after NaClO3 treatment, flow cytometry; assay type: cell-based, Chinese hamster; details: 100 mM NaClO3, 24 h; anti-HS antibody; data not shown
Experimental: Chinese hamster ovary (CHO) cells were a gift from M. Parmentier (ULB, Brussels, Belgium) and were cultured in Ham’s F-12 medium (with L-glutamine; Lonza, Belgium) supplemented with 10% fetal calf serum (FCS) and 0.8% G418 (Geneticin®; Life Technologies), as described ([44]). To inhibit sulfation of cellular GAGs, CHO cells were cultured in the presence of 100 mM sodium chlorate (NaClO3) for 24 h as previously described ([42]).
Binding of biotinylated CXCL9(74-103) and CXCL9(74-93) to CHO cells was assessed by flow cytometry as recently described ([42]). Briefly, cells were detached with phosphate-buffered saline (PBS) with 0.02% ethylenediaminetetraacetic acid (EDTA) and incubated with NH2-terminally biotinylated peptides. Subsequently, cells were incubated with streptavidin-allophycocyanin (BD Biosciences, San Jose, CA, USA) and analyzed by flow cytometry (FACSCalibur, BD Biosciences). To confirm inhibition of sulfation of cellular GAGs, part of the cells were stained with a mouse monoclonal anti-human HS antibody (Immunosource, Schilde, Belgium) and a secondary phycoerythrin-labeled goat anti-mouse antibody (BD Biosciences). Finally, cells were analyzed by flow cytometry. Analogously, binding of 100 nM biotinylated CXCL8 in the presence or absence of CXCL9(74-103) or CXCL9(74-93) was compared on CHO cells.

[7] = test system: CXCL8(1-77) binding to heparin; assay: Competition with CXCL8 for binding to immobilized heparin (ELISA-like); parameters: species or system human; details: heparin-coated plates, n ≥ 4
Experimental: as §1, §2

[8] = test system: cellular GAGs on CHO cells; details: binds dose-dependently to GAGs on CHO cells; cited from earlier work

inhibition of CXCL8 binding on HS-coated plates [2]: poorly competing
Compound: 86KKVLKVRKSQRSRQKKTT103 [CXCL9(86-103), COOH-terminal peptide of CXCL9]
inhibition of chemotactic activity of CXCL8 in vivo [1]: unable to inhibit chemotactic activity of CXCL8 in vivo
competition for CXCL1 binding to HS [3]: not able to inhibit the interaction between CXCL1 and HS
inhibition of CXCL8-induced neutrophil migration to peritoneal cavity [4]: did not inhibit CXCL8-induced neutrophil migration

Compound: CC(C)C[C@H](NC(=O)[C@@H](NC(=O)[C@H](CCCCN)NC(=O)[C@H](CCCCN)NC(=O)[C@H](CCCCN)NC(=O)[C@H](CCC(N)=O)NC(=O)[C@H](Cc1c[nH]cn1)NC(=O)[C@H](CCCCN)NC(=O)[C@H](CCCCN)NC(=O)CNC(=O)[C@H](CC(N)=O)NC(=O)[C@H](CCCCN)NC(=O)[C@H](CCC(N)=O)NC(=O)[C@H](CCCCN)NC(=O)[C@H](CCCCN)NC(=O)[C@H](CCCCN)NC(=O)c1ccc2c(c1)C(=O)OC21c2ccc(N(C)C)cc2Oc2cc(N(C)C)ccc21)C(C)C)C(=O)N[C@@H](CCCCN)C(=O)N[C@H](C(=O)N[C@@H](CCCNC(=N)N)C(=O)N[C@@H](CCCCN)C(=O)N[C@@H](CO)C(=O)N[C@@H](CCC(N)=O)C(=O)N[C@@H](CCCNC(=N)N)C(=O)N[C@@H](CO)C(=O)N[C@@H](CCCNC(=N)N)C(=O)N[C@@H](CCC(N)=O)C(=O)N[C@@H](CCCCN)C(=O)N[C@@H](CCCCN)C(=O)N[C@H](C(=O)N[C@H](C(=O)O)[C@@H](C)O)[C@@H](C)O)C(C)C [TAMRA-CXCL9(74-103)] (5TAMRA-KKKQKNGKKHQKKKVLKVRKSQRSRQKKTT-OH)
fraction of injected amount detected in plasma ([5]; 5 min after i.v. injection, assuming a blood volume of 3 ml): 3%
level at 5 min ([5]; mouse, plasma, iv, 5 min after i.v. injection, read-out: plasma concentration): 2000 ng/mL
level at 1 h ([5]; mouse, plasma, iv, 1 h after i.v. injection, no circulating peptide detected, read-out: plasma concentration): < 240 ng/mL

Compound: [Na+].[O-][Cl+2]([O-])[O-] [NaClO3, sodium chlorate]
reduction of HS expression on CHO cells [6]: 71.4%

molar excess over CXCL8 giving 50% reduction of CXCL8 binding to heparin ([7]; CXCL8(1-77) 0-300 nM, 2 h at 37°C, anti-CXCL8 detection, 450 nm, Figure 3A): more than 100 fold molar excess
Compound: 47NGRKICLDLQAPLYKKIIKKLLES70 [CXCL4(47-70), COOH-terminal peptide of CXCL4, reference compound]
competition with CXCL8 for heparin binding (relative potency) ([7]; Figure 3): less potent competitor of CXCL8 binding than the CXCL9 peptides
affinity for GAGs on CHO cells relative to CXCL9(74-103) [8]: about fivefold lower affinity than CXCL9(74-103)
